According to patent publication US20060069132A1, “Azolecarboxamide herbicides” (priority 2004, published 2006):

Legend:
morningglory = assay: Test C pre-/postemergence herbicide test; type: in vivo, Ipomoea coccinea; design: key to Plant response rating, Morningglory: 0 = no effect, 100 = complete control; conditions: preemergence
Method in brief: (§1)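 Emerged plants at the 1- to 4-leaf stage (2–18 cm), or freshly planted seeds, received test chemicals in a non-phytotoxic solvent mixture with surfactant. Response was visually scored against controls after 12 to 14 days in the greenhouse, on a 0 (no effect) to 100 (complete control) scale.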

ducksalad = assay: Test C flooded paddy test; type: in vivo, Heteranthera limosa; conditions: for Plant response rating, Ducksalad: 500 g ai/ha, visual rating after 12 to 14 days
corn = assay: Test C pre-/postemergence herbicide test; type: in vivo, Zea mays; conditions: preemergence
Method in brief: as §1

rice = assay: Test C flooded paddy test; type: in vivo, Oryza sativa; conditions: for Plant response rating, Rice: 500 g ai/ha, visual rating after 12 to 14 days
Method in brief: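 Postemergence sprays applied to plants 2 to 18 cm tall (1- to 4-leaf stage); paddy species grown to 2-leaf stage under flooding. After 12 to 14 days in greenhouse, visual rating versus untreated controls on 0–100 scale (0 no effect, 100 complete control).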

bermudagrass = assay: Test C pre-/postemergence herbicide test; type: in vivo, Cynodon dactylon
Method in brief: as §1

kochia = assay: Test C pre-/postemergence herbicide test; type: in vivo, Kochia scoparia; conditions: preemergence
Method in brief: as §1

giant foxtail = assay: Test C pre-/postemergence herbicide test; type: in vivo, Setaria faberi; conditions: preemergence
Method in brief: as §1

common ragweed = assay: Test C pre-/postemergence herbicide test; type: in vivo, Ambrosia elatior; design: key to Plant response rating, Ragweed: 0 = no effect, 100 = complete control; conditions: preemergence
Method in brief: as §1

large crabgrass = assay: Test C pre-/postemergence herbicide test; type: in vivo, Digitaria sanguinalis; conditions: preemergence
Method in brief: as §1

[1] = system: smallflower umbrella sedge; assay: Test C flooded paddy test; type: in vivo, Cyperus difformis; conditions: for Plant response rating, Sedge, Umbrella: 500 g ai/ha, visual rating after 12 to 14 days
[2] = system: common (oilseed) sunflower; assay: Test C pre-/postemergence herbicide test; type: in vivo, Helianthus annuus; conditions: preemergence
Method in brief: as §1

[3] = 125 g ai/ha, scale 0 (no effect) to 100 (complete control), visual, 12 to 14 days
[4] = 500 g ai/ha, scale 0 to 100 (0 no effect, 100 complete control), visual, 12 to 14 days
[5] = 125 g ai/ha, scale 0 to 100 (0 no effect, 100 complete control)
[6] = 250 g ai/ha, scale of 0 to 100, 0 is no effect, 100 is complete control
[7] = scale 0 to 100 (0 no effect, 100 complete control)
[8] = 125 g ai/ha, scale 0 (no effect) to 100 (complete control), visual, 12 to 14 days, preemergence
[9] = 62 g ai/ha, scale 0 to 100 (0 no effect, 100 complete control)
[10] = 125 g ai/ha, scale of 0 to 100, 0 is no effect, 100 is complete control

## CCn1nc(C2(C)CC2)cc1C(=O)Nc1cccc(C(=O)N2CC=CC2)c1 [Compound 304]
morningglory; 62 g ai/ha, scale 0 to 100
  Plant response rating, Morningglory: 0
morningglory; [3]
  Plant response rating, Morningglory: 10
morningglory; 250 g ai/ha, scale 0-100
  Plant response rating, Morningglory: 10
morningglory; [4]
  Plant response rating, Morningglory: 10
ducksalad; 62 g ai/ha, scale 0 to 100
  Ducksalad plant response rating: 65
ducksalad; [5]
  Ducksalad plant response rating: 85
ducksalad; [6]
  Ducksalad plant response rating: 95
ducksalad; [7]
  Plant response rating, Ducksalad: 95
corn; 62 g ai/ha, scale 0 to 100
  Plant response rating, Corn: 0
corn; [3]
  Plant response rating, Corn: 0
corn; 250 g ai/ha, scale 0-100
  Plant response rating, Corn: 15
corn; [4]
  Plant response rating, Corn: 30
rice; 62 g ai/ha, scale 0 to 100
  Rice plant response rating: 45
rice; [5]
  Rice plant response rating: 60
rice; [6]
  Rice plant response rating: 70
rice; [7]
  Plant response rating, Rice: 75
bermudagrass; 62 g ai/ha, preemergence, scale 0 to 100, 0 no effect, 100 complete control
  Plant response rating, Bermudagrass: 5
bermudagrass; [8]
  Plant response rating, Bermudagrass: 70
bermudagrass; 250 g ai/ha, scale 0-100, preemergence
  Plant response rating, Bermudagrass: 100
bermudagrass; Preemergence, 500 g ai/ha, scale 0 to 100, 0 no effect, 100 complete control
  Bermudagrass plant response rating: 100
kochia; [3]
  Plant response rating, Kochia: 80
kochia; 250 g ai/ha, scale 0-100
  Plant response rating, Kochia: 85
kochia; [4]
  Plant response rating, Kochia: 100
Giant foxtail; 62 g ai/ha, scale 0 to 100
  Plant response rating, Foxtail, Giant: 5
Giant foxtail; [3]
  Plant response rating, Foxtail, Giant: 50
Giant foxtail; 250 g ai/ha, scale 0-100
  Plant response rating, Foxtail, Giant: 60
Giant foxtail; [4]
  Plant response rating, Foxtail, Giant: 90
Common ragweed; 62 g ai/ha, scale 0 to 100
  Plant response rating, Ragweed: 0
Common ragweed; 250 g ai/ha, scale 0-100
  Plant response rating, Ragweed: 70
Common ragweed; [4]
  Plant response rating, Ragweed: 70
Large crabgrass; 62 g ai/ha, scale 0 to 100
  Plant response rating, Crabgrass, Large: 35
Large crabgrass; [3]
  Plant response rating, Crabgrass, Large: 100
Large crabgrass; 250 g ai/ha, scale 0-100
  Plant response rating, Crabgrass, Large: 100
Large crabgrass; [4]
  Plant response rating, Crabgrass, Large: 100
[1]; 62 g ai/ha, scale 0 to 100
  Sedge, Umbrella plant response rating: 75
[1]; [5]
  Sedge, Umbrella plant response rating: 90
[1]; [6]
  Sedge, Umbrella plant response rating: 95
[1]; [7]
  Plant response rating, Sedge, Umbrella: 95
[2]; 62 g ai/ha, scale 0 to 100
  Plant response rating, Sunflower: 0
[2]; 250 g ai/ha, scale 0-100
  Plant response rating, Sunflower: 0
[2]; [4]
  Plant response rating, Sunflower: 5

## CCC(=NO)c1cccc(NC(=O)c2cc(C(C)(C)C)nn2C)c1 [Compound 118]
morningglory; 31 g ai/ha, scale 0 to 100
  Plant response rating, Morningglory: 0
morningglory; 62 g ai/ha
  Plant response rating (0 = no effect, 100 = complete control), Morningglory: 20
morningglory; [3]
  Plant response rating, Morningglory: 30
ducksalad; [9]
  Ducksalad plant response rating: 0
ducksalad; [10]
  Ducksalad plant response rating: 50
ducksalad; [6]
  Ducksalad plant response rating: 50
ducksalad; [7]
  Plant response rating, Ducksalad: 50
corn; 31 g ai/ha, scale 0 to 100
  Plant response rating, Corn: 0
corn; 62 g ai/ha
  Plant response rating (0 = no effect, 100 = complete control), Corn: 0
corn; [3]
  Plant response rating, Corn: 10
rice; [9]
  Rice plant response rating: 20
rice; [10]
  Rice plant response rating: 30
rice; [6]
  Rice plant response rating: 40
rice; [7]
  Plant response rating, Rice: 50
bermudagrass; 16 g ai/ha, scale 0 to 100, 0 no effect, 100 complete control, last section of Table C (species set of preemergence test)
  Plant response rating, Bermudagrass: 0
bermudagrass; 31 g ai/ha, preemergence, scale 0 to 100
  Plant response rating, Bermudagrass: 30
bermudagrass; 62 g ai/ha, preemergence
  Plant response rating (0 = no effect, 100 = complete control), Bermudagrass: 90
bermudagrass; [8]
  Plant response rating, Bermudagrass: 100
kochia; 31 g ai/ha, scale 0 to 100
  Plant response rating, Kochia: 10
kochia; 62 g ai/ha
  Plant response rating (0 = no effect, 100 = complete control), Kochia: 20
kochia; [3]
  Plant response rating, Kochia: 20
Giant foxtail; 31 g ai/ha, scale 0 to 100
  Plant response rating, Foxtail, Giant: 0
Giant foxtail; 62 g ai/ha
  Plant response rating (0 = no effect, 100 = complete control), Foxtail, Giant: 0
Giant foxtail; [3]
  Plant response rating, Foxtail, Giant: 10
Common ragweed; 31 g ai/ha, scale 0 to 100
  Plant response rating, Ragweed: 0
Common ragweed; 62 g ai/ha
  Plant response rating (0 = no effect, 100 = complete control), Ragweed: 0
Common ragweed; [3]
  Plant response rating, Ragweed: 10
Large crabgrass; 31 g ai/ha, scale 0 to 100
  Plant response rating, Crabgrass, Large: 10
Large crabgrass; 62 g ai/ha
  Plant response rating (0 = no effect, 100 = complete control), Crabgrass, Large: 70
Large crabgrass; [3]
  Plant response rating, Crabgrass, Large: 100
[1]; [9]
  Sedge, Umbrella plant response rating: 0
[1]; [10]
  Sedge, Umbrella plant response rating: 50
[1]; [6]
  Sedge, Umbrella plant response rating: 50
[1]; [7]
  Plant response rating, Sedge, Umbrella: 50
[2]; 31 g ai/ha, scale 0 to 100
  Plant response rating, Sunflower: 0
[2]; 62 g ai/ha
  Plant response rating (0 = no effect, 100 = complete control), Sunflower: 0
[2]; [3]
  Plant response rating, Sunflower: 20
